According to patent publication US11840546B2, “Imidazopyridazine compounds and uses thereof” (Incyte Corporation, priority 2020, dated 2023):

Legend:
ALK2 (aa 147-end) = ALK2 (aa 147-end) (Homo sapiens (Human), UniProt Q04771); experiment: ALK2 HTRF Assay; assay type: biochemical; conditions: HTRF enzymatic assay, 3 μM ATP, 0.5 nM ALK2, 25° C., 2 hr
Experimental: ALK2 (aa 147-end) was obtained from BPS biosciences. The enzymatic assays were conducted in white 384-well polystyrene plates in a final volume of 8 μL. The inhibitors were serially diluted in DMSO and added to the plate wells prior to addition of the other reaction components. The assays were carried out at 25° C. in the assay buffer (50 mM HEPES, pH 7.0, 10% Glycerol, 0.01% Brij50, 10 mM MgCl2, 1 mM EGTA, 5 mM DTT, and 0.01% BSA), containing 50 nM LANCE Ultra ULight™-DNA Topoisomerase 2-alpha peptide (Perkin Elmer TRF0130), and 3 μM ATP. The final concentration of DMSO in the assay was […] and the enzyme concentration was 0.5 nM for ALK2. The reactions were allowed to proceed for 2 hr for ALK2 after which, the reaction was quenched by addition of EDTA at a final concentration of 20 mM along with 1.5 nM LANCE Ultra Europium-anti-phospho-DNA Topoisomerase 2-alpha (Thr1342) antibody (Perkin Elmer TRF0218). The reaction was incubated at 25° C. for 1 hr and read on a PHERAstar FS plate reader (BMG Labtech). IC50 determination was performed by fitting percent control activity versus the log of the inhibitor concentration using the IDBS XLFit and GraphPad Prism 5.0 software.

ALK2 mutant DIPG cell = conditions: ALK2 mutant DIPG cells; cited from earlier work

Chain of ALK2 (aa 147-end) (Q04771 147-509 limits assumed): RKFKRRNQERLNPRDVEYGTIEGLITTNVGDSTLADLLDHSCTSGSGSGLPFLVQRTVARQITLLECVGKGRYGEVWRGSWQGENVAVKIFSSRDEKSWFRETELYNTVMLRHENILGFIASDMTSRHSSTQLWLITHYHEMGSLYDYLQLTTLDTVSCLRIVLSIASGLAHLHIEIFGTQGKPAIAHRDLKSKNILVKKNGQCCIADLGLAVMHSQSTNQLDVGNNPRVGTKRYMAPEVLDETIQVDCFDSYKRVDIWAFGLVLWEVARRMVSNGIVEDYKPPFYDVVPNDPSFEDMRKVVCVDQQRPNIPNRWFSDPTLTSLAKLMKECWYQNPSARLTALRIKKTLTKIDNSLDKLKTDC

| SMILES | IC50 (ALK2 (aa 147-end)) [nM] | inhibition of ALK2 mutant DIPG cell viability (ALK2 mutant DIPG cell) |
| --- | --- | --- |
| Cc1cnn(-c2ccc3c(-c4cnc5cc(-c6ccc([C@]78C[C@H]7CN(C7CCOCC7)C8)cc6)c(C)nn45)ccnc3n2)n1 (stereo in doubt) [Example 4, 2-(4-Methyl-2H-1,2,3-triazol-2-yl)-5-(6-methyl-7-(4-((1S,5R)-3-(tetrahydro-2H-pyran-4-yl)-3-azabicyclo[3.1.0]hexan-1-yl)phenyl)imidazo[1,2-b]pyridazin-3-yl)-1,8-naphthyridine] | ≤ 1 |  |
| CCn1cnc(-c2ccc3c(-c4cnc5cc(-c6ccc([C@@]78C[C@@H]7CN(C7CCOCC7)C8)cc6)c(C)nn45)ccnc3n2)c1 [Example 1, 2-(1-Ethyl-1H-imidazol-4-yl)-5-(6-methyl-7-(4-((1R,5S)-3-(tetrahydro-2H-pyran-4-yl)-3-azabicyclo[3.1.0]hexan-1-yl)phenyl)imidazo[1,2-b]pyridazin-3-yl)-1,8-naphthyridine] | ≤ 1 |  |
| c1ccc2c(-c3cnn4cc(-c5ccc(N6CCNCC6)cc5)cnc34)ccnc2c1 [LDN-19318917] |  | significant inhibition |
| Cc1cnn(-c2ccc3c(-c4cnc5cc(-c6ccc(CN7CC8CCC7CC8)cc6)c(C)nn45)ccnc3n2)n1 [Example 3, 2-(4-(6-Methyl-3-(7-(4-methyl-2H-1,2,3-triazol-2-yl)-1,8-naphthyridin-4-yl)imidazo[1,2-b]pyridazin-7-yl)benzyl)-2-azabicyclo[2.2.2]octane] | ≤ 1 |  |
| CCn1cnc(-c2ccc3c(-c4cnc5cc(-c6ccc(CN7CC8CCC7CC8)cc6)c(C)nn45)ccnc3n2)c1 [Example 2, 2-(4-(3-(7-(1-Ethyl-1H-imidazol-4-yl)-1,8-naphthyridin-4-yl)-6-methylimidazo[1,2-b]pyridazin-7-yl)benzyl)-2-azabicyclo[2.2.2]octane] | ≤ 1 |  |
